Data taken from patent US20220079889A1, “USE OF CANNABANOIDS IN THE TREATMENT OF PROLIFERATIVE DIABETIC RETINOPATHY” (VERDANT PHARMACEUTICALS, LLC, priority 2020, published 2022).
Entries after “also recorded” stand apart in the source; their conditions may differ.

Columns and labels:
[1] = tested on: vascular leakage from the CNV lesions; assay: Laser injury CNV model, fluorescein angiography grading of leakage; type: in vivo, Brown-Norway rats; conditions: rats
Description: (§1) Lewis rats were euthanized by overdose anesthesia and perfused with PBS (500 ml/kg body weight (BW)). Eyes were immediately enucleated and the retinal pigment epithelium (RPE)-choroid complex was obtained from the rat eyes and homogenized in extraction reagent (TRIzol Reagent; Invitrogen, Carlsbad, Calif.). As a control, the retinal tissues were separately obtained and processed. Total RNA was prepared according to the manufacturer's protocol, and equal amounts (1 pg) of total RNA were reverse transcribed with a First-Strand cDNA synthesis kit (GE Healthcare, Buckinghamshire, UK) at 37° C. for 1 hour in a 15 μl reaction volume. […] PCR products were analyzed by electrophoresis in a 1.5% agarose gel and stained with ethidium bromide ([…]). The expected sizes of the amplified cDNA fragments of CB and GAPDH were 341 bp and 387 bp, respectively Band densities were quantified using NIH Image 1.41 software (available by ftp from zippy.nimh.nih.gov/or from the web site, rsb info.nih.gov/nih-image: developed by Wayne Rasband, National Institutes of Health, Bethesda, Md.). […]
Seven days after laser injury, vascular leakage from the CNV lesions was assessed using fluorescein angiography (FA), as described previously (Zambarakji et al. (2001) IOVS 42: 1553-60). […]

CNV lesions = assay: Laser injury CNV model, CNV size in choroidal flat mounts; type: in vivo, Brown-Norway rats; conditions: rats
From the text: For reverse transcription polymerase chain reaction (RT-PCR) detection and immunofluorescence staining of CB in the choroid, Lewis rats (8-10 weeks old, Charles River Laboratories, Inc., Wilmington, Mass.) were used. To generate CNV in the laser injury model, Brown-Norway rats (10-12 weeks old, Charles River Laboratories, Inc., Wilmington, Mass.) were used. Rats were housed in plastic cages in a climate controlled animal facility and were fed laboratory chow and water ad libitum. All animal experiments were conducted in accordance with the ARVO Statement for the Use of Animals in Ophthalmic and Vision Research.
as §1, with “Calif.).” for “Calif.). As a control, the retinal tissues were separately obtained and processed. Total RNA was prepared according to the manufacturer's protocol, and equal amounts (1 pg) of total RNA were reverse transcribed with a First-Strand cDNA synthesis kit (GE Healthcare, Buckinghamshire, UK) at 37° C. for 1 hour in a 15 μl reaction volume.”

[2] = tested on: IL-1β-induced corneal lymphangiogenesis; assay: IL-1β-induced corneal lymphangiogenesis (anti-LYVE-1 stain); type: in vivo, BALB/c mice; conditions: 0.3 mg/kg daily i.p.
Description: BALB/c mice were anesthetized by intraperitoneal (i.p.) injection of pentobarbital sodium (60 mg/kg). Hydron pellets (0.3 μl) containing 30 ng mouse IL-1β (401-ML, R&D Systems) were prepared and implanted into the corneas. Pellets were positioned 1 mm from the corneal limbus. Implanted eyes were treated with Bacitracin ophthalmic ointment (E. Fougera & Co.) to prevent infection.
To block CB, mice received daily i.p. injections of a specific CBD. Compound II (R-tech Ueno Ltd., Tokyo, Japan) as described above. A daily dose of 0.3 mg/kg was administered at day 0 and continued until the sixth day after implantation. Two, four and six days after implantation, digital images of the corneal vessels were obtained and recorded using OpenLab software version 2.2.5 (Improvision Inc.) with standardized illumination and contrast and were saved onto disks. The quantitative analysis of new vessel growth in the mouse corneas was performed using Scion Image software (version 4.0.2, Scion Corp.).
Eyes were enucleated and fixed with 4% paraformaldehyde for one hour at 4° C. For whole-mount preparation, the corneas were exposed by removing other portions of the eye (i.e iris, sclera, retina, and conjunctiva). […]

## CC(=O)Nc1nc(CCc2ccc(NC(=N)NN)cc2)c(Cc2ccc(S(C)(=O)=O)cc2)s1 [Compound II]
[1]
  effect on fluorescent angiographic leakage (in words): significantly decreased
CNV lesions
  effect on CNV / CNV size (in words): significantly decreased; also recorded: effectively suppresses CNV
[2]
  effect on corneal lymphangiogenesis (in words): effectively suppresses corneal lymphangiogenesis
